For assay [1], the target named is T1, Adrenergic receptor alpha-2 (Rattus norvegicus, UniProt P22086+P19328+P22909).
T1 sequence (P22086 whole entry): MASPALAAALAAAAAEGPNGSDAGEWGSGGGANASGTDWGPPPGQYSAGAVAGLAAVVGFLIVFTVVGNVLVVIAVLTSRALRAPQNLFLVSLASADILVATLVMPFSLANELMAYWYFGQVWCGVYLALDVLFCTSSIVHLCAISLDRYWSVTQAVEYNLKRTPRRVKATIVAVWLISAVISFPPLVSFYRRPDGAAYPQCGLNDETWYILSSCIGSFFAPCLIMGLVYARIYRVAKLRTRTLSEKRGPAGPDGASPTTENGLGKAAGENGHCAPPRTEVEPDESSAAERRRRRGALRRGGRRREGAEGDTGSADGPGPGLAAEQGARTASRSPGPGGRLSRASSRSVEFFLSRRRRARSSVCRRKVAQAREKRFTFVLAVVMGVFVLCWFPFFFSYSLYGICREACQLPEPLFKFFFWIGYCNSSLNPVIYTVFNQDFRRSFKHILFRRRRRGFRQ
T1 sequence (P19328 whole entry): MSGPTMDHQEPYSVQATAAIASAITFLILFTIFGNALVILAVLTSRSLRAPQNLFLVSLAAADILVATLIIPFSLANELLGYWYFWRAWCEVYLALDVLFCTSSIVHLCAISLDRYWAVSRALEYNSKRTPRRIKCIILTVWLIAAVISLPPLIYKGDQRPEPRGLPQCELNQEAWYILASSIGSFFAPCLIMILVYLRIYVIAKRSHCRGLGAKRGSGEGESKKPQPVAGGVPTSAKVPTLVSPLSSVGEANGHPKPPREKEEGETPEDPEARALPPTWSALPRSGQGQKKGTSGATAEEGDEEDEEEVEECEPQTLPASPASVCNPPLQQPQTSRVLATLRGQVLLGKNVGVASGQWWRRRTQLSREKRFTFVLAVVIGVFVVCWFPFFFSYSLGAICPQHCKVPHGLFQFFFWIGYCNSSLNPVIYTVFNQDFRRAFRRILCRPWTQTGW
T1 sequence (P22909 whole entry): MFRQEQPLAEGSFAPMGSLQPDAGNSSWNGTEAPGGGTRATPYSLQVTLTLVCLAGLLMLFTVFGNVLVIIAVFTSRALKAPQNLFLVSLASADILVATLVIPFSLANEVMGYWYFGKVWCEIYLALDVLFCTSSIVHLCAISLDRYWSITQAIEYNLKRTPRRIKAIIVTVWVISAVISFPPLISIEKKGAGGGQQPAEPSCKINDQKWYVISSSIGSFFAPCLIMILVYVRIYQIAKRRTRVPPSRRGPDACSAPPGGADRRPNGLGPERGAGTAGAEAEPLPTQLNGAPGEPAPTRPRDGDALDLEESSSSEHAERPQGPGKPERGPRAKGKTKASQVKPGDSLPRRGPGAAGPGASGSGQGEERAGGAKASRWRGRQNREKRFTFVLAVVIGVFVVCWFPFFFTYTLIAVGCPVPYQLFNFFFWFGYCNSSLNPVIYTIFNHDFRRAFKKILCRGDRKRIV
Description: Alpha-2 adrenergic receptor blocking activity by antagonism of clonidine induced depression of twitch response of field stimulated prostatic portion of rat vas deferens. Type of assay: functional, tissue-based.

Assay [2] addresses Adrenergic receptor alpha (Rattus norvegicus) (UniProt P15823+P23944+P43140+P22086+P19328+P22909). Kind of assay: Ratio of IC50 towards alpha1 to alpha-2 receptors of rat vas deferens. The assay is classed as protein assay.
The nature of assay [3]: Inhibition of ADP induced human blood platelet aggregation. The assay is classed as functional.
The species named for assay [4] is Rattus norvegicus. Kind of assay: Alpha-1-adrenoceptor blocking activity by antagonism of (-)-norepinephrine induced contractions of epididymal portion of rat vas deferens. The assay is classed as functional.
Assay [5] can be described thus: Inhibition of epinephrine induced human blood platelet aggregation. Type of assay: functional.
Assay [6] is filed under the species Rattus norvegicus. Kind of assay: Alpha-1-adrenoceptor blocking activity by antagonism of (-)-norepinephrine induced contractions of epididymal portion of rat vas deferens; Inactive up to a concentration of 20 uM. Type of assay: functional.

Usually IC50 stands for the concentration needed to halve the response being measured. Low values mean greater potency in that assay, high ones weaker potency in that assay.

A value given as a limit tells only on which side of the number the result lay.

For `COc1ccccc1CNCCCCCCNCCSSCCNCCCCCCNCc1ccccc1OC` [BENEXTRAMINE], the IC50 came to 0.82 µM in assay [1], 97 µM in assay [3], 7.55 µM in the assay filed under Rattus norvegicus [4] and 31.3 µM in assay [5]. Moreover, the Selectivity in assay [2] was determined as 9.2.
As to `COc1ccccc1CNCCCNCCCCCCCCNCCSSCCNCCCCCCCCNCCCNCc1ccccc1OC.Cl.O`, the IC50 entry in the assay filed under Rattus norvegicus [6] is listed as “Not Active”.
With `COc1ccccc1CNCCCCCCCCCCCCNCCSSCCNCCCCCCCCCCCCNCc1ccccc1OC`, in assay [2], the Selectivity was less than 0.41. Further, the IC50 in assay [3] is 2.1 µM; in the assay listed under Rattus norvegicus [4] it was 8.23 µM; in assay [5], 1.7 µM.
With `COc1ccccc1CNCCC(=O)NCCCCCCCCNCCSSCCNCCCCCCCCNC(=O)CCNCc1ccccc1OC`, in the assay filed under Rattus norvegicus [6], the half-maximal inhibitory concentration (IC50) result is reported as “Not Active”.
For the compound `COc1ccccc1CNCCCCCCCNCCSSCCNCCCCCCCNCc1ccccc1OC`, the IC50 in assay [1] was determined as 1.04 µM; in assay [3], 41.3 µM; in the assay filed under Rattus norvegicus [4], 55.2 µM; in assay [5], 20.6 µM. The Selectivity in assay [2] was 53.1.
As for `COc1ccccc1CNCCCCCCCCCCNCCSSCCNCCCCCCCCCCNCc1ccccc1OC`, the Selectivity in assay [2] is less than 3.14. The 50% inhibitory concentration (IC50) in assay [3] amounted to 2.8 µM; in the assay filed under Rattus norvegicus [4], 62.8 µM; in assay [5], 2.2 µM.
Turning to `C1=CC(CNCCCCCCCCCCCCNCCSSCCNCCCCCCCCCCCCNCC2C=CC=N2)N=C1` (stereo unspecified), the Selectivity in assay [2] was less than 0.37. Further, in the assay filed under Rattus norvegicus [4], the IC50 came out at 7.3 µM.
Consider `COc1ccccc1CNCCCCCCCCCCCCN(C)CCSSCCN(C)CCCCCCCCCCCCNCc1ccccc1OC`, for which the Selectivity in assay [2] was less than 2.35. The compound also displayed an IC50 in the assay listed under Rattus norvegicus [4] of 46.9 µM.
With `Nc1ncnc2c1ncn2[C@@H]1O[C@H](CO)[C@@H](O)[C@H]1O` [ADENOSINE], the IC50 in assay [3] came to 2.5 µM; in assay [5], 1.8 µM.
As to `COc1ccccc1CNCCCCCCCCNCCSSCCNCCCCCCCCNCc1ccccc1OC`, the IC50 in assay [1] is 1.22 µM; in assay [3] it was 22.7 µM; in the assay listed under Rattus norvegicus [4], 98.5 µM; in assay [5], 5.4 µM. The Selectivity in assay [2] was 80.7.
As for `COc1ccccc1CNCCCCCCCCCNCCSSCCNCCCCCCCCCNCc1ccccc1OC`, in assay [2], the Selectivity was less than 3.4. The concentration for half-maximal inhibition (IC50) in assay [3] amounted to 6 µM; in the assay filed under Rattus norvegicus [4], 68 µM; in assay [5] it was 2.3 µM.
As for `COc1ccccc1CNCCCCCCNCCCCCCNCCSSCCNCCCCCCNCCCCCCNCc1ccccc1OC.Cl.O`, in the assay filed under Rattus norvegicus [6], the IC50 entry is recorded as “Not Active”.
Consider `COc1ccccc1CNCCCCCNCCSSCCNCCCCCNCc1ccccc1OC`, for which the IC50 in assay [1] was 25.8 µM; in assay [3] it was 87 µM; in the assay filed under Rattus norvegicus [4], 55.8 µM; in assay [5], 46 µM. Besides, the Selectivity in assay [2] was 2.16.
Regarding `COc1ccccc1CNCCCCCCCCCCCNCCSSCCNCCCCCCCCCCCNCc1ccccc1OC`, the Selectivity in assay [2] was less than 2.57. Further, the IC50 in assay [3] was 2.1 µM; in the assay filed under Rattus norvegicus [4], 51.3 µM; in assay [5], 1.7 µM.
With `COc1ccccc1CNCCCCCC(=O)NCCCCCCNCCSSCCNCCCCCCNC(=O)CCCCCNCc1ccccc1OC`, the IC50 entry in the assay listed under Rattus norvegicus [6] is reported as “Not Active”.

These data come from ChEMBL document CHEMBL1124213, “Structure-activity relationships among benextramine-related tetraamine disulfides. Chain length effect on alpha-adrenoreceptor blocking activity” (J Med Chem, 1988).
